Ends that are not written are not given here.

The values below come from patent US20020137209A1, “Methods of dissociating nongenotropic from genotropic activity of steroid receptors” (priority 2000, published 2002).

In assay [1] the target is T1, ERβ (Homo sapiens, UniProt Q92731). As to the kind of experiment: ERE-luc transcription in HeLa cells transfected with ERβ. In kind it is cell-based. The arrangement: expressed in transfected cells; host or cells: HeLa. As to conditions: ERβ carrying HeLa cells, 10^−8 M E2. The source says:
(§1) A. HeLa cells were transiently transfected with the ERα expression vector alone or together with a vector carrying a fusion of the α-II peptide with the GAL4 DNA binding domain driven by the SV40 promoter. In addition, cells were transfected with ERE-luc or IL-6-luc for the transcription studies; or with EGFP-nuc for the apoptosis experiments. […] B. HeLa cells were transfected with ERα or ERβ alone or together with expression vectors carrying 2X293 or 2XF6 peptides. […] C. HeLa cells were transfected with a vector carrying the GRIP peptide alone or together with ERα.
(§2) DNA constructs. […] Bio. […] The sequence for peptide αII is […] (SEQ ID NO.: 1). […] (SEQ ID NO.: 3). The sequence for GRIP is […] […] […] (SEQ ID NO.: 4). […] The forward primer contained the restriction site for SalI and the ERα Kozak sequence and the reverse primer contained the BamH1 restriction site. Amplified PCR products were subcloned into the SalI/BamH1 restriction site of pCMV.
(§3) Transient transfections. HeLa cells were plated at 5×10^4/cm^2 and after 16-24 hours were transfected with a total amount of 3 μg of DNA using Lipofectamine (Life Technologies Inc). Following a 4-6 hours of incubation, the transfection mix was replaced with fresh medium containing 10% charcoal-stripped serum and treatments were initiated.

Assay [2] has as its target T1, ERβ. As to the kind of experiment: IL-6-luc transcription in HeLa cells transfected with ERβ. In kind it is cell-based. The arrangement: expressed in transfected cells; host or cells: HeLa. The following applies: ERβ carrying HeLa cells, 10^−8 M E2.
Description: as §1, §2, §3

Assay [3] addresses T1, ERβ. In words: Etoposide-induced apoptosis in HeLa cells transfected with ERβ.
The target in assay [4] is T2, ERα (Homo sapiens, UniProt P03372).
T2 sequence (P03372 1-595): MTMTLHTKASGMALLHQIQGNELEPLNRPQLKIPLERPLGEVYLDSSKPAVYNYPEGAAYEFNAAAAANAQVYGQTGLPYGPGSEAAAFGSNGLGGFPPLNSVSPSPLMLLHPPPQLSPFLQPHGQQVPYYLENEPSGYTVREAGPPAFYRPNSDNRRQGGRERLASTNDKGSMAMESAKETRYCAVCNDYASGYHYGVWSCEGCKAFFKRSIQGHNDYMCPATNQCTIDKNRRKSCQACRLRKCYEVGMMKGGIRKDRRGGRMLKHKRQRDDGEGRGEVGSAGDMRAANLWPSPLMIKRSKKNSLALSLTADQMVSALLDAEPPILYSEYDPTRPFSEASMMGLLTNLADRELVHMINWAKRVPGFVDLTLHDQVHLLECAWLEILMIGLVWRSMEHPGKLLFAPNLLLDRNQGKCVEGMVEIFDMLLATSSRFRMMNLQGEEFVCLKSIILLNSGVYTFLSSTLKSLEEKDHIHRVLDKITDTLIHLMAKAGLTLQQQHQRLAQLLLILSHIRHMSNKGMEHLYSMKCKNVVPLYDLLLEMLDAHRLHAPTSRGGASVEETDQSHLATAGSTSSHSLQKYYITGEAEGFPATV
In words: Etoposide-induced apoptosis in HeLa cells transfected with ERα. As to conditions: peptide co-transfected, 10^−8 M E2.

Assay [5] relates to osteocytic cell line MLO-Y4. As to the kind of experiment: Apoptosis of MLO-Y4 osteocytic cells (trypan blue). The class given is cell-based.
The test system of assay [6] is ERK1/2. In words: ERK phosphorylation in MLO-Y4 cells (Western blot). The class given is cell-based. The following applies: for effect of inhibitor on induction of ERK phosphorylation by E2 or DHT: inhibitor 25 min, then 5 min E2 or DHT. A general note: In western blotting, separated proteins are transferred to a membrane and probed.
Description: Western blot analysis. The phosphorylation status of ERK1/2 was analyzed by immunoblotting using a mouse monoclonal antibody recognizing tyrosine phosphorylated ERK1/2, or a rabbit polyclonal antibody recognizing total ERK1/2, followed by incubation with either an anti-mouse or an anti-rabbit antibody conjugated with horseradish peroxidase (Santa Cruz Biotechnology).
For assay [7], the system named is HeLa cells transfected with the vector without receptor (empty vector, ev). In words: Etoposide-induced apoptosis in HeLa cells transfected with empty vector. The following applies: 10^−12M to 10^−8 M.
In assay [8] the test system is calvaria-derived murine osteoblastic cells. As to the kind of experiment: Apoptosis of calvaria-derived osteoblastic cells (trypan blue).
Assay [9] concerns embryonic fibroblasts derived from Src−/− mice. In words: Apoptosis in embryonic fibroblasts from Src−/− mice. In kind it is cell-based. The following applies: ER- and AR-expressing, also lack yes and Fyn. As for the experimental part: Cell lysates were obtained and proteins were analyzed by Western blot analysis using anti-ERK1/2 or anti-phospho-ERK1/2 (p-ERK1/2) antibodies. […] After 30 min, etoposide was added and apoptosis was assayed 6 hours later as in FIG. 1B. […] RT-PCR was performed as described in the experimental procedures. C-E. HeLa cells were transfected with Nuc-EGFP and with expression vectors encoding the full length ERα or its E domain, or the AR alone (C, left panel) or together with a dn MEK (C, right panel); a Src mutant lacking the kinase activity (Src K^−), a Src mutant lacking the SH2 domain (Src ΔSH2), or a Src mutant lacking the SH3 domain (Src ΔSH3) (D); or with ERα together with wt Shc, or the dn Shc mutants Y239F/Y240F/Y317F (Shc FFF), Y317F (Shc YYF) or Y239F/Y240F (Shc FFY) (E). Bars represent means±SD of triplicate determinations. *p<0.05 versus cells cultured without steroids, by ANOVA.
Quantification of apoptotic cells in vitro. Apoptotic cells were quantified either by trypan blue staining or by direct visualization of changes in nuclear morphology (in the case of transfected HeLa cells), as previously described (Plotkin,L. et al. (1999). J.
RT-PCR analysis of the ERs and AR in embryonic fibroblasts. […]

Assay [10] addresses T3, AR (Homo sapiens, UniProt P10275).
T3 sequence (P10275 1-920): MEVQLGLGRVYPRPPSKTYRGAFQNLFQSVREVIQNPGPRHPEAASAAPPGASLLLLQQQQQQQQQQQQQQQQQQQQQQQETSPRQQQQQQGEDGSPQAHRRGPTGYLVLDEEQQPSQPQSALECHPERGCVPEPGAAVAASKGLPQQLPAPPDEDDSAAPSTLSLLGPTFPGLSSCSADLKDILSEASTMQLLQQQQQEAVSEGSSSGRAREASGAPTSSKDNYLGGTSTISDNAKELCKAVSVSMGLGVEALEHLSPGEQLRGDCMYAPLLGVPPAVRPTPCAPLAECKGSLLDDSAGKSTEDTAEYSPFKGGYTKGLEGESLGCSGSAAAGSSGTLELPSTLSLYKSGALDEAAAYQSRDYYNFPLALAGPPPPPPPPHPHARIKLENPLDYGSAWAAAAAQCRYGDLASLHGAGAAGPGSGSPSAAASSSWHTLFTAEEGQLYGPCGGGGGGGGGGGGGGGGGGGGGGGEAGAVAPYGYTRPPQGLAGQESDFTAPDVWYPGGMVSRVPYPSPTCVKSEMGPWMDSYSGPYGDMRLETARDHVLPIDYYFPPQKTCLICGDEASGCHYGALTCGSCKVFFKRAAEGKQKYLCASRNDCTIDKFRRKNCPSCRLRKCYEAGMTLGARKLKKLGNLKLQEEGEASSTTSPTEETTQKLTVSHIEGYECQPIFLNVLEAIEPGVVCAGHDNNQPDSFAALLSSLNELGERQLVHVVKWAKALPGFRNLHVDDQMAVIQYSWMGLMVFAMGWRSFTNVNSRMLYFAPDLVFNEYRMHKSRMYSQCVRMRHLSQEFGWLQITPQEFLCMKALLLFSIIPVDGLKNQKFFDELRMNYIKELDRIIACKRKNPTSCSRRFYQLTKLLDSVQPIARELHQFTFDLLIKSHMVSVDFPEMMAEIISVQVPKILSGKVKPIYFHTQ
In words: Etoposide-induced apoptosis in HeLa cells transfected with AR.

T1 sequence (Q92731 whole entry, species assumed, the tested form may be a part): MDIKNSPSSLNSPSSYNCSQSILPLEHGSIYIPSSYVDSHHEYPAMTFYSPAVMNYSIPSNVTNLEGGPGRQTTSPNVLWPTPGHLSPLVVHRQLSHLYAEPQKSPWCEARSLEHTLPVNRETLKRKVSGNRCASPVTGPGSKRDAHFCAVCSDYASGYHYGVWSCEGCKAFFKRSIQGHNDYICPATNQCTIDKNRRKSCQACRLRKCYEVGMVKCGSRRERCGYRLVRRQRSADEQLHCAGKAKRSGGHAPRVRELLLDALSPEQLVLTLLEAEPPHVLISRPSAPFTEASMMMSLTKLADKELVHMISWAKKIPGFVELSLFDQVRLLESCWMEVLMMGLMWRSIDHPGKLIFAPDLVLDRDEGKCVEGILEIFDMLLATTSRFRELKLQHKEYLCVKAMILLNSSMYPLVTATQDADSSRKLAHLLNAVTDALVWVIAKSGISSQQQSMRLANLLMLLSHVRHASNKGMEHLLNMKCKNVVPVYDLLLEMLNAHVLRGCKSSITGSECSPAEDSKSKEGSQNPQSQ

Turning to “293: ERβ-specific peptide SSIKDFPNLISLLSR (SEQ ID NO.: 2); two copies expressed fused to GAL4 DNA binding domain (also: two copies fused to GAL4 DNA binding domain) [compound 293]”, the “effect of peptide on E2-induced ERE-Luc transcription” value in assay [1] is given as “blocked”. The “effect of peptide on E2 effect on IL-6-Luc transcription” value in assay [2] is on record as “blocked”. The “effect of peptide on the anti-apoptotic activity of ERβ (E2)” value in assay [3] (peptide co-transfected, 10^−8 M E2) is listed as “did block”. Moreover, the “effect of peptide on the anti-apoptotic activity of ERα (E2)” value in assay [4] is “did not have an effect”.

On to `C[C@]12CCC(=O)C[C@@H]1CC[C@@H]1[C@@H]2CC[C@]2(C)[C@@H](O)CC[C@@H]12` [DHT, 5β-dihydrotestosterone], for which the “prevention of apoptosis induced by etoposide, dexamethasone or TNFα” value in [5] (10^−8 M steroid) and in [8] (10^−8 M steroid) was “prevented apoptosis” throughout. In addition, the “dose-dependent inhibition of etoposide-induced apoptosis compared with calvaria cells” value in [5] (not shown) is on record as “identical results”. Also, the “time of maximal effect on phosphorylation of ERKs” value in assay [6] (MLO-Y4 cells) is 5 min. The “prevention of etoposide-induced apoptosis” value in assay [3] (HeLa transfected with ERβ) was “prevented apoptosis in a dose-dependent manner”. In addition, in assay [7], the “effect on etoposide-induced apoptosis” value is recorded as “Neither E2 nor DHT (10^−12M to 10^−8 M) had an effect”. For the same compound, the “anti-apoptotic effect in Src−/− fibroblasts (unlike Src+/+ wild type controls)” value in [9] is listed as “unresponsive”.

Consider `C[C@]12CC[C@@H]3c4ccc(O)cc4C[C@@H](CCCCCCCCC[S+]([O-])CCCC(F)(F)C(F)(F)F)[C@H]3[C@@H]1CC[C@@H]2O` (some centres unmarked) [ICI 182,780], for which the “effect of antagonist/inhibitor on the anti-apoptotic effect of E2 or DHT” value in assay [10] is listed as “abrogated”. The “effect of antagonist on the anti-apoptotic effect of DHT” value in assay [8] (antagonist pre-treatment 30 min, 10^−8 M DHT, etoposide) is “blocked”. Moreover, the “effect of antagonist on the anti-apoptotic effect of E2” value in [8] (antagonist pre-treatment 30 min, 10^−8 M E2, etoposide) is reported as “blocked”.

As to `Cc1ccc(-c2nn(C(C)(C)C)c3ncnc(N)c23)cc1` [PP1], the “effect of inhibitor on the anti-apoptotic effect of E2 and DHT” value in [5] (inhibitor 30 min prior to E2 or DHT, etoposide 6 hours) was “completely abrogated”. Moreover, the “effect of inhibitor on induction of ERK phosphorylation by E2 or DHT” value in [6] is given as “blocked”.

On to `N#CC(=C(/N)Sc1ccccc1N)/C(C#N)=C(/N)Sc1ccccc1N` [UO 126], for which the “effect of inhibitor on induction of ERK phosphorylation by E2 or DHT” value in [6] was “blocked”.
